Test results taken from patent publication US20140235533A1, “DIHYDROFURAN DERIVATIVES AS INSECTICIDAL COMPOUNDS” (SYNGENTA PARTICIPATIONS AG, priority 2011, published 2014).

Assays:
Format in all cases: in vivo
Spodoptera littoralis = Spodoptera littoralis (Egyptian cotton leafworm) cotton leaf disc spray test; conditions: foliar, 72 h, 200 ppm spray on cotton leaf discs, 5 L1 larvae, mortality, feeding behavior, growth regulation 3 days after treatment
From the text: Spodoptera littoralis (Egyptian Cotton Leafworm) Cotton leaf discs were placed on agar in a 24-well microtiter plate and sprayed with test solutions at an application rate of 200 ppm. After drying, the leaf discs were infested with 5 L1 larvae. The samples were checked for mortality, feeding behavior, and growth regulation 3 days after treatment (DAT).

Heliothis virescens = Heliothis virescens (tobacco budworm) egg test on artificial diet; conditions: 96 h, 200 ppm (concentration in well 18 ppm), eggs 0-24 h old on artificial diet, egg mortality, larval mortality, growth regulation after 4 days
Experimental: Heliothis virescens (Tobacco Budworm):
Eggs (0-24 h old) were placed in 24-well microtiter plate on artificial diet and treated with test solutions at an application rate of 200 ppm (concentration in well 18 ppm) by pipetting. After an incubation period of 4 days, samples were checked for egg mortality, larval mortality, and growth regulation. The following compound gave at least 80% control of Heliothis virescens: A1, A2, A03, A05, A06, A07, A08, A09, A10, A11, A12, A13, A14, A15, A16, A17, A18, A19, A20, A21, A22, A25, A26, A27, A31, A32, A34, A37, A39, A40, A42, A44, A45, A46, A47, A48, A49, A50, A51, A52, A53, B1**.

Plutella xylostella = Plutella xylostella (diamond back moth) artificial diet MTP test; conditions: 144 h, 200 ppm (concentration in well 18 ppm), L2 larvae, larval mortality and growth regulation after 6 days
Experimental: (§1) Plutella xylostella (Diamond Back Moth): 24-well microtiter plate (MTP) with artificial diet was treated with test solutions at an application rate of 200 ppm (concentration in well 18 ppm) by pipetting. After drying, the MTPs were infested with L2 larvae (7-12 per well). After an incubation period of 6 days, samples were checked for larval mortality and growth regulation.

Diabrotica balteata = Diabrotica balteata (corn root worm) artificial diet MTP test; conditions: 120 h, 200 ppm (concentration in well 18 ppm), L2 larvae, larval mortality and growth regulation after 5 days
Experimental: as §1, with “Diabrotica balteata (Corn Root Worm): A” for “Plutella xylostella (Diamond Back Moth):”, “(6-10” for “(7-12”, “5” for “6”

Tetranychus urticae = Tetranychus urticae (two-spotted spider mite) bean leaf disc spray test; conditions: foliar, 192 h, 200 ppm spray on bean leaf discs, mite populations of mixed ages, egg, larval and adult mortality 8 days later
From the text: Tetranychus urticae (Two-Spotted Spider Mite): Bean leaf discs on agar in 24-well microtiter plates were sprayed with test solutions at an application rate of 200 ppm. After drying, the leaf discs are infested with mite populations of mixed ages. 8 days later, discs are checked for egg mortality, larval mortality, and adult mortality.

Measured: pest or weed control at 200 ppm

CC(C)C(=O)NCc1ccc(C2=COC(c3cc(Cl)cc(Cl)c3)(C(F)(F)F)C2)cc1Cl (stereo not drawn) [Compound A46, N-[[2-chloro-4-[2-(3,5-dichlorophenyl)-2-(trifluoromethyl)-3H-furan-4-yl]phenyl]methyl]-2-methyl-propanamide]
≥ 80%: all assays above

O=C(CC(F)(F)F)NCc1ccc(C2=COC(c3cc(Cl)cc(Cl)c3)(C(F)(F)F)C2)cc1Cl (stereo not drawn) [Compound A48, N-[[2-chloro-4-[2-(3,5-dichlorophenyl)-2-(trifluoromethyl)-3H-furan-4-yl]phenyl]methyl]-3,3,3-trifluoro-propanamide]
≥ 80%: all assays above

CS(=O)(=O)CC(=O)NCc1ccc(C2=COC(c3cc(Cl)cc(Cl)c3)(C(F)(F)F)C2)cc1Cl (stereo not drawn) [Compound A51, N-[[2-chloro-4-[2-(3,5-dichlorophenyl)-2-(trifluoromethyl)-3H-furan-4-yl]phenyl]methyl]-2-methylsulfonyl-acetamide]
≥ 80%: all assays above
